Experimental findings from PMC9506420, “Biological Evaluation of 3-Azaspiro[Bicyclo[3.1.0]Hexane-2,5′-Pyrimidines] as Potential Antitumor Agents” (International Journal of Molecular Sciences, 2022) are described below.

Assay [1] deals with African green monkey kidney epithelial (Vero) cell line. As to the kind of experiment: MTS antiproliferative (cytotoxicity) assay, Vero (reference). The assay is classed as cell-based. The conditions noted are these: Chlorocebus sabaeus, Vero. The method, then: (§1) The cytotoxicity of synthesized 3-azaspiro[bicyclo[3.1.0]hexane-2,5′-pyrimidines] 4 against human erythroleukemia (K562), cervical carcinoma (HeLa), and T lymphocyte (Jurkat), as well as mouse colon carcinoma (CT26) and African green monkey kidney epithelial (Vero) cell lines as reference, was evaluated in vitro by the standard MTS assay for 24 and 72 h.
(§2) All the cell lines (human cervical carcinoma (HeLa), erythroleukemia (K-562), and T lymphocyte (Jurkat) as well as mouse colon carcinoma (CT26) and African green monkey kidney epithelial (Vero)) were obtained from the cell repository “Vertebrate cell culture collection” (supported by the Ministry of Science and Higher Education of the Russian Federation, agreement №075-15-2021-683, Institute of Cytology, Russian Academy of Sciences, Saint Petersburg, Russia). HeLa, Jurkat, and Vero cells were cultured in DMEM (HyClone, South Logan, UT, USA) supplemented with 10% (v/v) fetal bovine serum (Hyclone, GE Healthcare Life Sciences, Logan, UT, USA), and gentamicin (Sigma-Aldrich, St. Louis, MO, USA) at 37 °C in a humidified atmosphere with 5% CO2. K-562 and CT26 cells were grown at RPMI medium (Hyclone, GE Healthcare Life Sciences, Logan, UT, USA), with the same supplements and conditions.
(§3) To evaluate the in vitro toxicity of compounds synthesized, cells were seeded into 96-well plates at a density of 5 × 10^3 cells per well. On the next day, tested compounds were added to the wells at concentrations ranging from […], followed by incubation for 1 and 3 days. Cell proliferation was determined by adding 20 μL of MTS reagent (BioVision, Milpitas, CA, USA) stock solution per well. Each plate was incubated for 2 h at 37 °C in a humidified, 5% CO2 atmosphere. The plates were then read at 495 nm using plate spectrophotometer (Multiskan GO, Thermo Fisher Scientific, Waltham, MA, USA). All samples were measured in triplicates.

A further assay relates to CT26 cells. As to the kind of experiment: Annexin V-FITC/DAPI cell death analysis, CT26. The assay is classed as cell-based, mouse. The conditions noted are these: CT26, 10 μg/mL, 72 h; for Necrotic Cells, %: control 0.0 ± 0.0; for Late Apoptotic Cells, %: control 0.9 ± 0.4; for Early Apoptotic Cells, %: control 10.5 ± 0.7; for Live Cells, %: control 88.5 ± 1.1. How it is done:
(§4) The results of cell death detection after the exposure of the HeLa and CT26 cell lines to spiro-fused cycloadducts 4c–i at a dose of 10 μg/mL for 72 h, using Annexin V-FITC/DAPI staining, are shown in Figure 6 and Figure 7, respectively.
(§5) Cells were seeded in 24-well plates, 5 × 10^4 cells per well. After 24 h incubation, cells were treated with compounds 4c–i for 72 h. Then, cells were washed, harvested by trypsinisation, stained with Annexin V-FITC ([…]) and DAPI (Thermo Fisher Scientific, Waltham, MA, USA), in accordance with the protocol of the manufacturer, and analyzed by flow cytometry. The proapoptotic effect of azaspiro[bicyclo[3.1.0]hexane-2,5′-pyrimidines] 4c–i was evaluated by an Annexin V-FITC/DAPI (AV/DAPI) dual-staining assay to examine the occurrence of phosphatidylserine externalization, which facilitated the detection of live cells (lower-left quadrant; AV−/DAPI−), early apoptotic cells (upper-left quadrant; AV+/DAPI−), late apoptotic cells (upper-right quadrant; AV+/DAPI+), and necrotic cells (lower-right quadrant; AV−/DAPI+).

Assay [2] has as its system mouse colon carcinoma (CT26) cell line. As to the kind of experiment: MTS antiproliferative (cytotoxicity) assay, CT26. It counts as cell-based. The conditions noted are these: for SI (selectivity index), CT26: Vero as reference cell line; for IC50: Mus musculus. How it is done: as §1, §2, §3
In assay [3] the test system is human T lymphocyte (Jurkat) cell line. As to the kind of experiment: MTS antiproliferative (cytotoxicity) assay, Jurkat. The assay is classed as cell-based. The conditions noted are these: for IC50: Homo sapiens, MTS; for SI (selectivity index), Jurkat: Vero as reference cell line. The method, then:
The cytotoxicity of synthesized 3-azaspiro[bicyclo[3.1.0]hexane-2,5′-pyrimidines] 4 against human erythroleukemia (K562), cervical carcinoma (HeLa), and T lymphocyte (Jurkat), as well as mouse colon carcinoma (CT26) and African green monkey kidney epithelial (Vero) cell lines as reference, was evaluated in vitro by the standard MTS assay for 24 and 72 h. The results are presented in Figure 1, Figure 2, Figure 3, Figure 4 and Figure 5 (data on all, tested on K562, HeLa, and CT26 cell lines’ compounds, are given at SI, Figures S1–S3). […] Replacement of the phenyl group by either the carboxymethyl or N-isopropylcarbamoyl group has led to a significant decrease in the activity of spiro-fused cycloadducts comprising azabicyclo[3.1.0]hexane and alloxane moieties.
as §2, §3

The subject of the next assay is HeLa cells. As to the kind of experiment: Annexin V-FITC/DAPI cell death analysis, HeLa. The assay is classed as cell-based, human. The note with it: 10 μg/mL, 72 h; for Necrotic Cells, %: control 0.5 ± 0.3; for Early Apoptotic Cells, %: control 4.5 ± 0.7; for Late Apoptotic Cells, %: control 5.9 ± 0.4; for Live Cells, %: control 89.0 ± 0.7. How it is done: as §4, §5

Assay [4] has as its system human cervical carcinoma (HeLa) cell line. As to the kind of experiment: MTS antiproliferative (cytotoxicity) assay, HeLa. The assay is classed as cell-based. The conditions noted are these: HeLa; for SI (selectivity index), HeLa: Vero as reference cell line; for IC50: Homo sapiens. How it is done: as §1, §2, §3
The subject of assay [5] is human erythroleukemia (K562) cell line. As to the kind of experiment: MTS antiproliferative (cytotoxicity) assay, K562. The note with it: for IC50: Homo sapiens; for SI (selectivity index), K562: Vero as reference cell line. It counts as cell-based. How it is done:
as §1, §2, §3

Where [6] appears, read: 24 h, read-out: IC50, Vero, 24 h.
Setting [7] is: 72 h, read-out: IC50, Vero, 72 h.
Where [8] appears, read: CT26, 24 h, read-out: IC50, CT26, 24 h.
Setting [9] is: CT26, 72 h, read-out: IC50, CT26, 72 h.
Where [10] appears, read: 24 h, read-out: IC50, Jurkat, 24 h.
Setting [11] is: 72 h, read-out: IC50, Jurkat, 72 h.
Where [12] appears, read: 24 h, read-out: IC50, HeLa, 24 h.
Setting [13] is: 72 h, read-out: IC50, HeLa, 72 h.
[14] abbreviates: K562, 24 h, read-out: IC50, K562, 24 h.
Where [15] appears, read: K562, 72 h, read-out: IC50, K562, 72 h.

Molecules are shown by their SMILES. “And” between values parts separate entries of the source, which are not always exact repeats. Equal entries are not always repeated. Where two headings read alike, the source gives them in different places.

By IC50 is commonly meant the point on the concentration scale where inhibition reaches its midpoint.

Take `CSCC[C@@H]1NC2(C(=O)NC(=O)NC2=O)[C@]2(c3ccccc3)[C@@H](c3ccccc3)[C@]12c1ccccc1` [Compound 4h]: the IC50 in assay [1] (setting [6]) is 31 ± 4 µM; in assay [1] (setting [7]), 22 ± 4 µM; in assay [2] (setting [8]), 22 ± 2 µM; in assay [2] (setting [9]) it was 16 ± 2 µM; in assay [3] (setting [10]), 18 ± 4 µM; in assay [3] (setting [11]) it was 13 ± 4 µM. The IC50 is 28 ± 2 µM in assay [4] (setting [12]), 24 ± 6 µM in assay [4] (setting [13]), 20 ± 4 µM in assay [5] (setting [14]) and 10 ± 2 µM in assay [5] (setting [15]). Moreover, the “Necrotic Cells, %” value was determined as 0.9 ± 0.3 % with CT26 cells and 1.9 ± 0.2 % in the assay on HeLa cells. The “Late Apoptotic Cells, %” value in the assay on CT26 cells amounted to 24.0 ± 0.7 %; in the assay on HeLa cells it was 15.3 ± 0.5 %. The results for the “Early Apoptotic Cells, %” value with CT26 cells and with HeLa cells were 4.8 ± 0.5 % and 9.8 ± 1.0 %, respectively. The “Live Cells, %” value is 70.3 ± 0.6 % in the assay on CT26 cells; 72.2% and 72.2 ± 0.4 % in the assay with HeLa cells. Also, the “SI (selectivity index), CT26” value in assay [2] is 1.4. For the same compound, the “SI (selectivity index), Jurkat” value in assay [3] was 1.7. Moreover, the “SI (selectivity index), HeLa” value in assay [4] turned out to be 1.0. For the same compound, the “SI (selectivity index), K562” value in assay [5] is 2.2.
Take `O=C1NC(=O)C2(N[C@@H](c3ccccc3)[C@@]3(c4ccccc4)[C@H](c4ccccc4)[C@@]23c2ccccc2)C(=O)N1` [Compound 4i]: the IC50 in assay [1] (setting [6]) was 97 ± 12 µM; in assay [1] (setting [7]) it was 23 ± 4 µM; in assay [2] (setting [8]) it was 16 ± 2 µM; in assay [2] (setting [9]), 12 ± 2 µM; in assay [3] (setting [10]), 19 ± 2 µM; in assay [3] (setting [11]), 14 ± 4 µM. For the same compound, the IC50 in assay [4] (setting [12]) was 10 ± 2 µM; in assay [4] (setting [13]), 12 ± 6 µM; in assay [5] (setting [14]) it was 26 ± 4 µM; in assay [5] (setting [15]) it was 8 ± 4 µM. The “Necrotic Cells, %” value was 0.4 ± 0.1 % in the assay on CT26 cells and 2.1 ± 0.9 % in the assay on HeLa cells. The “Late Apoptotic Cells, %” value in the assay on CT26 cells is 19.5 ± 0.5 %; in the assay on HeLa cells, 17.3 ± 1.4 %. Further, the “Early Apoptotic Cells, %” value in the assay with CT26 cells was found to be 4.0 ± 0.1 %; in the assay on HeLa cells it was 12.6 ± 0.8 %. For the same compound, the “Live Cells, %” value with CT26 cells was 76.2 ± 0.3 %; in the assay with HeLa cells, 67.9% and 67.9 ± 2.4 %. In addition, the “SI (selectivity index), CT26” value in assay [2] came to 2.0. The “SI (selectivity index), Jurkat” value in assay [3] worked out at 1.7. The “SI (selectivity index), HeLa” value in assay [4] was 2.0. Also, the “SI (selectivity index), K562” value in assay [5] is reported as 2.9.
For the compound `CC[C@@H]1NC2(C(=O)NC(=O)NC2=O)[C@]2(c3ccccc3)[C@@H](c3ccccc3)[C@]12c1ccccc1` [Compound 4c], the IC50 in assay [1] (setting [6]) came to 47 ± 11 µM; in assay [1] (setting [7]) it was 16 ± 2 µM; in assay [2] (setting [8]), 27 ± 2 µM; in assay [2] (setting [9]), 20 ± 2 µM; in assay [3] (setting [10]), 149 ± 33 µM; in assay [3] (setting [11]), 15 ± 2 µM. In addition, the IC50 in assay [4] (setting [12]) was found to be 21 ± 2 µM; in assay [4] (setting [13]), 13 ± 2 µM; in assay [5] (setting [14]), 12 ± 2 µM; in assay [5] (setting [15]) it was 5 ± 2 µM. Further, the “Necrotic Cells, %” value in the assay with CT26 cells was 1.8 ± 0.8 %; in the assay with HeLa cells, 2.2 ± 0.5 %. Moreover, the “Late Apoptotic Cells, %” value with CT26 cells was determined as 6.4 ± 1.0 %. Further, the “Early Apoptotic Cells, %” value in the assay with CT26 cells amounted to 1.9 ± 0.3 %; with HeLa cells, 5.6 ± 1.3%. For the same compound, the figures for the “Live Cells, %” value in the assay on CT26 cells and with HeLa cells were 89.8 ± 0.5% and 81.0 ± 4.4 %, respectively. Further, the “SI (selectivity index), CT26” value in assay [2] came to 0.8. Moreover, the “SI (selectivity index), Jurkat” value in assay [3] is 1.1. For the same compound, in the assay with HeLa cells, the “rate of cell death in HeLa vs control” value was “not different from the control”. Further, the “SI (selectivity index), HeLa” value in assay [4] came out at 1.3. The “SI (selectivity index), K562” value in assay [5] amounted to 3.2.
Take `CCCC[C@@H]1NC2(C(=O)NC(=O)NC2=O)[C@]2(c3ccccc3)[C@@H](c3ccccc3)[C@]12c1ccccc1` [Compound 4e]: the IC50 was determined as 23 ± 2 µM in assay [1] (setting [6]); 10 ± 2 µM in assay [1] (setting [7]); 10 ± 2 µM in assay [2] (setting [8]); 6 ± 2 µM in assay [2] (setting [9]); 12 ± 2 µM in assay [3] (setting [10]); 9 ± 2 µM in assay [3] (setting [11]). Also, the IC50 in assay [4] (setting [12]) is 13 ± 2 µM; in assay [4] (setting [13]) it was 13 ± 4 µM; in assay [5] (setting [14]) it was 17 ± 2 µM; in assay [5] (setting [15]) it was 4 ± 2 µM. The “Necrotic Cells, %” value in the assay with CT26 cells was found to be 1.4 ± 0.1 %; in the assay on HeLa cells, 5.6 ± 2.6 %. The “Late Apoptotic Cells, %” value worked out at 61.6 ± 0.5 % in the assay on CT26 cells and 61.3 ± 3.8 % in the assay with HeLa cells. The entries for the “Early Apoptotic Cells, %” value with CT26 cells and in the assay with HeLa cells were 23.4 ± 0.8 % and 18.1 ± 3.1 %, respectively. Besides, the “Live Cells, %” value is 13.5% and 13.5 ± 0.4 % with CT26 cells; 15.0% and 15.0 ± 2.7 % in the assay on HeLa cells. Also, in assay [2], the “SI (selectivity index), CT26” value came to 1.7. Besides, the “SI (selectivity index), Jurkat” value in assay [3] was 1.2. Besides, the “SI (selectivity index), HeLa” value in assay [4] was found to be 0.8. Further, the “SI (selectivity index), K562” value in assay [5] turned out to be 2.5.
